Common to all, as to type: functional
For assay [1], the system named is Candida albicans. Briefly: Antimicrobial activity against Candida albicans clinical isolate biofilm by broth microdilution method.
Assay [2] has as its system Candida albicans. Briefly: Antimicrobial activity against Candida albicans clinical isolate sessile cells by microtiter plated based assay.
In assay [3] the test system is Candida albicans. Briefly: Antimicrobial activity against Candida albicans GDH 2346 planktonic cells by broth microdilution method.
Assay [4] concerns Candida albicans. Briefly: Antimicrobial activity against Candida albicans clinical isolates planktonic cells by broth microdilution method.
The test system of assay [5] is Candida albicans. Briefly: Antimicrobial activity against Candida albicans GDH 2346 sessile cells by microtiter plated based assay.

Experimental findings from ChEMBL document CHEMBL1649450, “In vitro activity of micafungin against planktonic and sessile Candida albicans isolates” (2009) are described below.

Values after ≈ are worked out from the molar mass of the structure shown. *1 amine or outer side, *2 acyl side, *3 side chain or, on linkers, in order; H or OH if unused. Where a SMILES comes first, the peptide text is derived from it. Bridges are numbered along the chain shown (N, C = ends). [ ]: non-standard residue; d: D form. The star is where a group is joined. hTyr(3S-OH,4S-OH,3'-OSO3H) = N[C@H](C(=O)O)[C@H](O)[C@@H](O)c1ccc(O)c(OS(=O)(=O)O)c1; pTerphenylCO(4''-OnC5H11) = CCCCCOc1ccc(-c2ccc(-c3ccc(C(=O)*)cc3)cc2)cc1; Orn(4R-OH,5R-OH) = O=C([C@H](C[C@@H](O)[C@@H](O)N[*:3])N[*:1])[*:2]; hTyr(3S-OH,4S-OH) = N[C@H](C(=O)O)[C@H](O)[C@@H](O)c1ccc(O)cc1; Pro(3S-OH,4S-Me) = C[C@H]1CN[C@H](C(=O)O)[C@H]1O; X1 = CCCCCOc1ccc(-c2cc(-c3ccc(C(=O)*)cc3)no2)cc1; Gln(3R-OH) = NC(=O)C[C@@H](O)[C@H](N)C(=O)O; Hyp = O=C(O)[C@@H]1C[C@@H](O)CN1

In the assay on Candida albicans [1], `CCCCCOc1ccc(-c2ccc(-c3ccc(C(=O)N[C@H]4C[C@@H](O)[C@@H](O)NC(=O)[C@@H]5[C@@H](O)[C@@H](C)CN5C(=O)[C@H]([C@@H](C)O)NC(=O)[C@H]([C@H](O)[C@@H](O)c5ccc(O)cc5)NC(=O)[C@@H]5C[C@@H](O)CN5C(=O)[C@H]([C@@H](C)O)NC4=O)cc3)cc2)cc1` [ANIDULAFUNGIN] ({pTerphenylCO(4''-OnC5H11)}-[Orn(4R-OH,5R-OH)]T[Hyp][hTyr(3S-OH,4S-OH)]T[Pro(3S-OH,4S-Me)]; lactam 1-C) gave an MIC90 not above 0.03 µg/mL.
In turn, `CC[C@H](C)C[C@H](C)CCCCCCCCC(=O)N[C@H]1C[C@@H](O)[C@@H](NCCN)NC(=O)[C@@H]2[C@@H](O)CCN2C(=O)[C@H]([C@H](O)CCN)NC(=O)[C@H]([C@H](O)[C@@H](O)c2ccc(O)cc2)NC(=O)[C@@H]2C[C@@H](O)CN2C(=O)[C@H]([C@@H](C)O)NC1=O` [CASPOFUNGIN] came in with an MIC90 in the assay with Candida albicans [1] of 2 µg/mL (≈ 1.83 µM).
On to `CCCCCOc1ccc(-c2cc(-c3ccc(C(=O)N[C@H]4C[C@@H](O)[C@@H](O)NC(=O)[C@@H]5[C@@H](O)[C@@H](C)CN5C(=O)[C@H]([C@H](O)CC(N)=O)NC(=O)[C@H]([C@H](O)[C@@H](O)c5ccc(O)c(OS(=O)(=O)O)c5)NC(=O)[C@@H]5C[C@@H](O)CN5C(=O)[C@H]([C@@H](C)O)NC4=O)cc3)no2)cc1` [MICAFUNGIN] (X1-[Orn(4R-OH,5R-OH)]T[Hyp][hTyr(3S-OH,4S-OH,3'-OSO3H)][Gln(3R-OH)][Pro(3S-OH,4S-Me)]; lactam 1-C), for which the MIC50 with Candida albicans [2] was 0.5 µg/mL (≈ 0.394 µM); with Candida albicans [4], 0.125 µg/mL (≈ 0.0984 µM). The MIC90 was 0.5 µg/mL (≈ 0.394 µM) in the assay on Candida albicans [2] and 0.125 µg/mL (≈ 0.0984 µM) against Candida albicans [4]. Moreover, the minimal inhibitory concentration (MIC) against Candida albicans [3] was 0.06 µg/mL (≈ 0.0472 µM); in the assay on Candida albicans [5] it was 0.53 µg/mL (≈ 0.417 µM).
